Reference: patent publication US20040019018A1, “Rigid pyrrolidone modulators of pkc” (priority 2003, published 2004)

What was measured:
δ-PKC = molecular target: T1, δ-PKC (Homo sapiens, UniProt Q05655); experiment: [3H]PDBu displacement from recombinant PKC isozyme (baculovirus); assay type: binding; conditions: [3H]PDBu competition
T1 construct: made in house; host or cells: Sf9 cells (baculovirus)
Protocol: (§1) These procedures are described below. […] (See the key that follows)
(§2) Analysis of [20-^3H]phorbol 12,13-dibutyrate binding to PKC. […] [^3H]PDBu (20.0 Ci/mmol) was obtained from New England Nuclear. Phosphatidylserine and bovine […] were obtained from Sigma Chemical Co. Binding was determined in an incubation volume of 250 μl, containing [^3H]PDBu, PKC, 0.05 M Tris-Cl, pH 7.4, 100 μg/ml phosphatidylserine, various concentrations of the ligand being assayed for competition of [^3H]PDBu binding, and bovine […] at 1 mg/ml. In the case of the classical PKCs (α, β, […]) CaCl2 was included at a concentration of 0.1 mM. Liposomes of phosphatidylserine were prepared as follows. The phosphatidylserine solutions were dried down from CHCl3 under a stream of N2. After addition of 0.05 M Tris-Cl, pH 7.4, liposomes were prepared by sonication for 30 sec with the microtip probe of Sonifier Cell Disrupter (Heat Systems-Ultrasonics). [^3H]PDBu was used at a concentration twice the Kd previously determined for the specific receptor. Ligands were assayed over a concentration range of 3 orders of magnitude. Ligands were diluted in 0.05 M Tris-Cl, pH 7.4 containing 1 mg/ml bovine g-globulin. If the compounds were not soluble at the highest concentration used, they were dissolved in organic solvent (CHCl3 or ethanol) and mixed with the phosphatidylserine dissolved in CHCl3. The solvent was removed under a stream of N2.
(§3) Mixed liposomes were then prepared, as described for the preparation of the liposomes of phosphatidylserine alone, by the addition of 0.05 M Tris-Cl, pH 7.4, and sonication for 30 sec with the microtip probe of a Sonifier Cell Disrupter (Heat Systems-Ultrasonics). Incubation was for 5 min at 37° C. […] After vigorous mixing, the samples were incubated for 15 min to allow precipitation of the receptor. The precipitate was recovered by centrifugation at 12,000 rpm in a Beckman microcentrifuge at 4° C. […] This value provided a measure of the concentration of unbound [^3H]PDBu. The remainder of the supernatant was removed by aspiration and blotting with absorbent tissue. The tip of the centrifuge tube was cut off and the radioactivity in the pellet measured to determine total bound [^3H]PDBu. Non-specific binding of [^3H]PDBu was measured in the presence of 30 μM non-radioactive PDBu and used to determine an apparent partition coefficient for [^3H]PDBu under these assay conditions.
(§4) Specific binding represents the difference between total binding and the non-specific binding, where the latter value was calculated from the partition coefficient and the measured free [^3H]PDBu concentration in each tube. In each experiment, triplicate determinations were performed at each concentration of competing ligand. A half-maximal inhibitory concentration of inhibitor and a Ki for the inhibitor was determined by computer fit of the data points to the equation B(I)/B(O)=(L+Kd)/(Kd+(Kd/Ki)(I)+L), where B(I) represents the amount of [^3H]PDBu specifically bound in the presence of inhibitor, B(O) represents the amount specifically bound in the absence of inhibitor, L is the concentration of [^3H]PDBu, Kd is the measured dissociation constant for [^3H]PDBu, Ki is the dissociation constant for the inhibitor, and I is the concentration of inhibitor.
(§5) Expression of PKC isozymes in baculovirus. […] After 60-72 hr, the cells were centrifuged (1000 rpm, 10 min) and washed twice with phosphate buffered saline, and the pelleted cells kept at −70° C. until used.
(§6) For purification of the individual PKC isozymes, the cell pellet was resuspended in […] of a homogenization buffer of the following composition; 20 mM Tris-Cl, pH 8.0, 5 mM EDTA, 5 mM EGTA, 0.3% (v/v) 2-mercaptoethanol, 10 mM benzamidine, 50 μg/ml phenylmethylsulfonyl fluoride, and 250 μg/ml leupeptin. The cells were disrupted in a Potter-Elvehjem homogenizer at 4° C., and the homogenate is centrifuged at 100,000×g for 60 min.

β-PKC = molecular target: T2, β-PKC (Homo sapiens, UniProt P05771); experiment: as above; assay type: binding; conditions: [3H]PDBu competition
T2 construct: made in house; host or cells: Sf9 cells (baculovirus)
Protocol: as §1, §2, §3, §4, §5, §6

T2 sequence (P05771 whole entry): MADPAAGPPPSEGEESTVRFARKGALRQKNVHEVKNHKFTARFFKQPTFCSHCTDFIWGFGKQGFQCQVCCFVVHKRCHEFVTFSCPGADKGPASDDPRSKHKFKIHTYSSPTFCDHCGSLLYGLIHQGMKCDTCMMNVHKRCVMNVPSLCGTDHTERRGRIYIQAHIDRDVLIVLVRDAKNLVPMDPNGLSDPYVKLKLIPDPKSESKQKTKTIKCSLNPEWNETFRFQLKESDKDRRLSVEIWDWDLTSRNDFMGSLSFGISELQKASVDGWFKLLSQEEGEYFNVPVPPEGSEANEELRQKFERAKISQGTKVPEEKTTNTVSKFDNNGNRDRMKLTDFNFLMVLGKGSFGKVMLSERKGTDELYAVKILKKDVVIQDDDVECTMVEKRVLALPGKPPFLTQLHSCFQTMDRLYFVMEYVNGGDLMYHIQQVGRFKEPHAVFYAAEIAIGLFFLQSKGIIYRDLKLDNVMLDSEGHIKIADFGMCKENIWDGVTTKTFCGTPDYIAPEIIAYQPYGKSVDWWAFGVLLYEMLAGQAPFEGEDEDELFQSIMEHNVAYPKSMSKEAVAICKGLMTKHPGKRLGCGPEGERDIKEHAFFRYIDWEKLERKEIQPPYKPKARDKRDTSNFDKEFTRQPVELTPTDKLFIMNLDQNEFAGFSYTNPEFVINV
T1 sequence (Q05655 whole entry): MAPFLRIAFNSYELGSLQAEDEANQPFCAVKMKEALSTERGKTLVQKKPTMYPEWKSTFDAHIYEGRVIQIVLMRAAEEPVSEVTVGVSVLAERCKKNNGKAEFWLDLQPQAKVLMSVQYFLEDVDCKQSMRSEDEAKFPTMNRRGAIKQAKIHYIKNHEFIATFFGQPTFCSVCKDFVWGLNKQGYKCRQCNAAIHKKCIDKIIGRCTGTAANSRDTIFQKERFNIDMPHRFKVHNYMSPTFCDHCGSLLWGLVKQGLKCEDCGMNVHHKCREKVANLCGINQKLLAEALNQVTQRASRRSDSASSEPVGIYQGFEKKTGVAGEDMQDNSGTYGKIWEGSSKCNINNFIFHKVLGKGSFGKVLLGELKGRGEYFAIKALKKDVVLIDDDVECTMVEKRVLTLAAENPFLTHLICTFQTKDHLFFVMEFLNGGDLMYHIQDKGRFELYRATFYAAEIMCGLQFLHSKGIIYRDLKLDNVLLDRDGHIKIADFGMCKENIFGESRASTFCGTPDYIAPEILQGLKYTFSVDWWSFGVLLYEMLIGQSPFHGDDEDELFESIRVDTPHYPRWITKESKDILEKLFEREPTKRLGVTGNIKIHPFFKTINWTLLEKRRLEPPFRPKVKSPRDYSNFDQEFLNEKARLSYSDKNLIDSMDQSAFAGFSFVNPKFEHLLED

Structure (SMILES) | Ki (δ-PKC) [µM] | Ki (β-PKC) [µM]
CCCCCCCCCCCC(=O)Oc1cc2c(cc1Br)[C@@H]1[C@@H](CO)NC(=O)[C@@H]1[C@]2(C)C(C)C [Compound 5, (3S, 8S, 9S, 10S)-5-bromo-6-dodecanoyloxyl-3-hydroxymethyl-8-isopropyl-8-methyl-3,3a,8,8a-tetrahydro-2H -2-aza-cyclopenta[a]inden-1-one] | 0.623 ± 0.318 | 1.61 ± 0.257
CCCCCCCCCCCC(=O)Oc1ccc2c(c1)[C@](C)(C(C)C)[C@H]1C(=O)N[C@H](CO)[C@@H]21 [Compound 2, (3S, 8R, 9S, 10S)-6-dodecanoyloxyl-3-hydroxymethyl-8-isopropyl-8-methyl-3,3a,8,8a-tetrahydro-2H -2-aza-cyclopenta[a]inden-1-one] | 1.37 ± 0.329 | 0.593 ± 0.178
CCCCCCCCCCCC(=O)Oc1cc2c(cc1C(C)=O)[C@@H]1[C@@H](CO)NC(=O)[C@@H]1[C@]2(C)C(C)C [Compound 4, (3S, 8S, 9S, 10S)-5-acetyl-6-dodecanoyloxyl-3-hydroxymethyl-8-isopropyl-8-methyl-3,3a,8,8a-tetrahydro-2H -2-aza-cyclopenta[a]inden-1-one] | 4.37 ± 0.214 | 8.49 ± 3.31
CCCCCCCCC#Cc1ccc2c(c1)C(C)(C(C)C)C1C(=O)NC(CO)C21 [Compound 1, (3S, 8R, 9S, 10S)-6-(dec-1′-ynyl)-3-hydroxymethyl-8-isopropyl-8-methyl-3,3a,8,8a-tetrahydro-2H-2-aza-cyclopenta[a]inden-1-one] | 1.63 ± 0.391 | –
CCCCCCCCCCCC(=O)Oc1ccc2c(c1)[C@@](C)(C(C)C)[C@H]1C(=O)N[C@H](CO)[C@@H]21 [Compound 3, (3S, 8S, 9S, 10S)-6-dodecanoyloxyl-3-hydroxymethyl-8-isopropyl-8-methyl-3,3a,8,8a-tetrahydro-2H -2-aza-cyclopenta[a]inden-1-one] | 0.15 ± 0.064 | 1.05 ± 0.284
CCCCCCCCCCCC(=O)Oc1cc2c(cc1C(C)=O)[C@@H]1[C@@H](CO)NC(=O)[C@@H]1[C@@]2(C)C(C)C [Compound 11, (3S, 8R, 9S, 10S)-5-acetyl-6-dodecanoyloxyl-3-hydroxymethyl-8-isopropyl-8-methyl-3,3a,8,8a-tetrahydro-2H -2-aza-cyclopenta[a]inden-1-one] | – | > 10
